Results taken from US20160355483A1, “COMPOUND BINDING TO PPARG BUT NOT ACTING AS PROMOTER AND PHARMACEUTICAL COMPOSITION FOR TREATING PPARG-RELATED DISEASES CONTAINING SAME AS ACTIVE INGREDIENT” (Hyundai Pharm Co., Ltd., priority 2014, published 2016).

molecular target: T1, PPARG (peroxisome proliferator activated receptor-gamma), GST-PPARG-LBD (Homo sapiens, UniProt P37231); assay: LanthaScreen TR-FRET PPARG Competitive Binding Assay; parameters: key: “+” indicates the degree of the binding activity, and as the number of “+” increases, the binding activity is stronger; ++: “+” indicates the degree of the binding activity, and as the number of “+” increases, the binding activity is stronger; +++: “+” indicates the degree of the binding activity, and as the number of “+” increases, the binding activity is stronger; ++++: “+” indicates the degree of the binding activity, and as the number of “+” increases, the binding activity is stronger; conditions: degree of binding activity
T1 construct: 15 μL of 5 nM GST-PPARG-LBD and 5 nM Tb-GST-antibody were added; purchased Invitrogen PV4894
T1 sequence (P37231 238-503 limits assumed): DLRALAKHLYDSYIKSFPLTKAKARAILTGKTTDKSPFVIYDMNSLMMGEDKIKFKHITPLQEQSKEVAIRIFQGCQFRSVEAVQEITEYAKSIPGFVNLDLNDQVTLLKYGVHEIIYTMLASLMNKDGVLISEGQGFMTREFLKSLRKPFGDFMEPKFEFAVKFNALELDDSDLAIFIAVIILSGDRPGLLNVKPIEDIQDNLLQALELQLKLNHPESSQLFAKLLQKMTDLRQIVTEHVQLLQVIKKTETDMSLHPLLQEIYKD
Procedure, shortened: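 Ratio of 518 nm to 488 nm time-resolved emission after a 1 h room-temperature incubation, in competition format with GST-PPARG ligand-binding domain. Values are expressed as 100% minus compound-to-vehicle ratio and related to rosiglitazone binding.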

| Compound | Binding assay (1 μLM) |
| --- | --- |
| C[C@H](NC(=O)c1ccc2c(c1)CCCN2Cc1cccc(-c2ccccc2C(N)=O)c1)c1ccc(C#N)cc1 [Example 122, (S)-1-((2′-carbamoyl-[1,1′-biphenyl]-3-yl)methyl)-N-(1-(4-cyanophenyl)ethyl)-1,2,3,4-tetrahydroquinoline-6-carboxamide] | ++ |
| C[C@H](NC(=O)c1ccc2c(c1)CCCN2Cc1ccc(-c2ccccc2C(N)=O)cc1F)c1ccc(C#N)cc1 [Example 112, (S)-1-((2′-carbamoyl-3-fluoro-[1,1′-biphenyl]-4-yl)methyl)-N-(1-(4-cyanophenyl)ethyl)-1,2,3,4-tetrahydroquinoline-6-carboxamide] | +++ |
| C[C@H](NC(=O)c1ccc2c(c1)CCCN2Cc1ccc(-c2ccccc2C(=O)O)cc1)c1cccc(F)c1 [Example 17, (S)-4′-((6-((1-(3-fluorophenyl)ethyl)carbamoyl)-3,4-dihydroquinoline-1(2H)-yl)methyl)-[1,1′-biphenyl]-2-caboxylic acid] | +++ |
| Cc1ccc([C@H](C)NC(=O)c2ccc3c(c2)CCCN3Cc2cccc(-c3ccccc3C(N)=O)c2)cc1F [Example 125, (S)-1-((2′-carbamoyl-[1,1′-biphenyl]-3-yl)methyl)-N-(1-(3-fluoro-4-methylphenyl)ethyl)-1,2,3,4-tetrahydroquinoline-6-carboxamide] | +++ |
| O=C(NCc1ccccn1)c1ccc2c(c1)CCCN2Cc1ccc(-c2ccccc2C(=O)O)cc1 [Example 26, 4′-((6-((pyridine-2-ylmethyl)carbamoyl)-3,4-dihydroquinoline-1(2H)-yl)methyl)-[1,1′-biphenyl]-2-carboxylic acid] | ++ |
| C[C@H](NC(=O)c1ccc2c(c1)CCCN2Cc1ccc(-c2ccccc2C(N)=O)cc1)c1cccc2ccccc12 [Example 38, (S)-1-((2′-carbamoyl-[1,1′-biphenyl]-4-yl)methyl)-N-(1-(naphthalene-1-yl)ethyl)-1,2,3,4-tetrahydroquinoline-6-carboxamide] | ++ |
| Cc1ccc([C@H](C)NC(=O)c2ccc3c(c2)OCCN3Cc2ccccc2-c2ccc(C(=O)O)cc2)cc1F [Example 145, (S)-2′-((7-((1-(3-fluoro-4-methylphenyl)ethyl)carbamoyl)-2H-benzo[b][1,4]oxazine-4(3H)-yl)methyl)-[1,1′-biphenyl]-4-carboxylic acid] | ++ |
| C[C@H](NC(=O)c1ccc2c(c1)CCCN2Cc1cccc(-c2ccccc2C(=O)O)c1F)c1ccc([N+](=O)[O-])cc1 [Example 128, (S)-2′-fluoro-3′-((6-((1-(4-nitrophenyl)ethyl)carbamoyl)-3,4-dihydroquinoline-1(2H)-yl)methyl)-[1,1′-biphenyl]-2-caboxylic acid] | ++ |
| C[C@H](NC(=O)c1ccc2c(c1)CCCN2Cc1ccc(-c2ccccc2C(N)=O)cc1)c1ccccc1F [Example 42, (S)-1-((2′-carbamoyl-[1,1′-biphenyl]-4-yl)methyl)-N-(1-(2-fluorophenyl)ethyl)-1,2,3,4-tetrahydroquinoline-6-carboxamide] | +++ |
| C[C@H](NC(=O)c1ccc2c(c1)CCCN2Cc1ccc(-c2ccccc2C(N)=O)cc1)c1ccc(Br)cc1 [Example 37, (S)—N-(1-(4-bromophenyl)ethyl)-1-((2′-carbamoyl-[1,1′-biphenyl]-4-yl)methyl)-1,2,3,4-tetrahydroquinoline-6-carboxamide] | +++ |
| Cc1ccc([C@H](C)NC(=O)c2ccc3c(c2)OCCN3Cc2ccc(-c3ccccc3C(=O)O)c(F)c2)cc1F [Example 164, (S)-2′-fluoro-4′-((7-(((3-fluoro-4-methylphenyl)ethyl)carbamoyl)-2H-benzo[b][1,4]oxazine-4(3)-yl)methyl)-[1,1′-biphenyl]-2-carboxylic acid] | +++ |

Second part, the molecule after the results:

| Binding assay (1 μLM) | Compound |
| --- | --- |
| +++ | C[C@H](NC(=O)c1ccc2c(c1)CCCN2Cc1ccc(-c2ccccc2C(=O)O)cc1)c1ccccc1F [Example 24, (S)-4′-((6-((1-(2-fluorophenyl)ethyl)carbamoyl)-3,4-dihydroquinoline-1(2H)-yl)methyl)-[1,1′-biphenyl]-2-caboxylic acid] |
| + | C[C@H](NC(=O)c1ccc2c(c1)OCCN2Cc1ccc(-c2ccccc2C(=O)O)cc1)c1ccc(Cl)cc1 [Example 64, (S)-4′-((7-((1-(4-chlorophenyl)ethyl)carbamoyl)-2H-benzo[b][1,4]oxazine-4(3H)-yl)methyl)-[1,1′-biphenyl]-2-carboxylic acid] |
| + | NC(=O)c1ccccc1-c1ccc(CN2CCOc3cc(C(=O)NCc4cccnc4)ccc32)cc1 [Example 97, 4-((2′-carbamoyl-[1,1′-biphenyl]-4-yl)methyl)-N-(pyridine-3-ylmethyl)-3,4-dihydro-2H-benzo[b][1,4]oxazine-7-carboxamide] |
| ++ | NC(=O)c1ccccc1-c1ccc(CN2CCOc3cc(C(=O)NCc4ccccc4Br)ccc32)cc1 [Example 101, N-(2-bromobenzyl)-4-((2′-carbamoyl-[1,1′-biphenyl]-4-yl)methyl)-3,4-dihydro-2H-benzo[b][1,4]oxazine-7-carboxamide] |
| + | NC(=O)c1ccccc1-c1ccc(CN2CCOc3cc(C(=O)NCc4ccc5c(c4)OCCO5)ccc32)cc1 [Example 102, 4-((2′-carbamoyl-[1,1′-biphenyl]-4-yl)methyl)-N-((2,3-dihydrobenzo[b][1,4]dioxin-6-yl)methyl)-3,4-dihydro-2H-benzo[b][1,4]oxazine-7-carboxamide] |
| ++ | C[C@H](NC(=O)c1ccc2c(c1)OCCN2Cc1ccc(-c2ccccc2C(N)=O)cc1)c1ccccc1 [Example 59, (S)-4-((2′-carbamoyl-[1,1′-biphenyl]-4-yl)methyl)-N-(1-phenylethyl)-3,4-dihydro-2H-benzo[b][1, 4]oxazine-7-carboxamide] |
| +++ | O=C(NC1COc2ccccc2C1)c1ccc2c(c1)OCCN2Cc1ccc(-c2ccccc2C(=O)O)cc1 (stereo not shown) [Example 82] |
| +++ | C[C@H](NC(=O)c1ccc2c(c1)CCCN2Cc1ccc(-c2ccccc2C(=O)O)cc1)c1ccccc1C(F)(F)F [Example 25, (S)-4′-((6-((1-(2-(trifluoromethyl)phenyl)ethyl)carbamoyl)-3,4-dihydroquinoline-1(2)-yl)methyl)-[1,1′-biphenyl]-2-carboxylic acid] |
